Data as given in PMC10482691, “LTP induction by structural rather than enzymatic functions of CaMKII” (Nature, 2023).
Several values for one entry are separate records, joined by “and”; a condition that tells them apart may be missing. Identical values can stand only once.

Columns and labels:
CaMKIIδ(h) = CaMKIIδ(h) (Homo sapiens, UniProt Q13557); assay: Kinase selectivity panel (residual activity at 1 μM); format: biochemical; conditions: inhibitor at 1 μM; read-out: residual kinase activity in % of maximal activity
CaMKIV(h) = CaMKIV(h) (Homo sapiens, UniProt Q16566); assay: as above; format: biochemical; conditions: inhibitor at 1 μM; read-out: residual kinase activity in % of maximal activity
CDK2/cyclinE(h) = CDK2/cyclinE(h) (Homo sapiens, UniProt P24941); assay: as above; format: biochemical; conditions: inhibitor at 1 μM
PDGFRβ(h) = PDGFRβ(h) (Homo sapiens, UniProt P09619); assay: as above; format: biochemical; conditions: inhibitor at 1 μM; read-out: residual kinase activity in % of maximal activity
PKCδ(h) = PKCδ(h) (Homo sapiens, UniProt Q05655); assay: as above; format: biochemical; conditions: inhibitor at 1 μM; read-out: residual kinase activity in % of maximal activity
PKG1β(h) = PKG1β(h) (Homo sapiens, UniProt Q13976); assay: as above; format: biochemical; conditions: inhibitor at 1 μM; read-out: residual kinase activity in % of maximal activity
SAPK2a(h) = SAPK2a(h) (Homo sapiens, UniProt Q16539); assay: as above; format: biochemical; conditions: inhibitor at 1 μM
[1] = target: purified CaMKIIα binding to GST–GluN2B-c S1303A (Homo sapiens, UniProt Q9UQM7); assay: CaMKII binding to immobilized GST–GluN2B-c S1303A in vitro
[2] = target: GFP–CaMKII WT / mCh-GluN2B-c tail in HEK293 cells (Homo sapiens, UniProt Q9UQM7); assay: Ionomycin-induced colocalization of GFP–CaMKII WT and mCherry-2BC in HEK293 cells; format: cell-based; conditions: 10 μM AS283
Method: HEK cells were grown and transfected with expression vectors for GFP–CaMKII mutants and pDisplay-mCh-GluN2B-c tail (2BC) as previously described[24],[57]; the GluN2B construct used included an S1303A mutation to avoid potential complications by differential phosphorylation of this regulatory site[13],[27] in the different conditions with or without kinase inhibitors. GFP–CaMKII colocalization with GluN2B in response to a Ca^2+ stimulus induced by 10 μM ionomycin was monitored for 5–10 min at 32 °C in imaging buffer (0.87× Hanks Balanced Salt Solution, 25 mM HEPES, pH 7.4, 2 mM glucose, 2 mM CaCl2, 1 mM MgCl2) by fluorescence microscopy. Images were acquired on a Zeiss Axiovert 200M equipped with a climate control chamber using SlideBook software (Intelligent Imaging Innovations; v.6.0). Colocalization analysis was performed by calculating the Pearson’s correlation (correlation index) with ImageJ of pDisplay-mCh-2BC and GFP–CaMKII within the cytoplasm of HEK cells after background subtraction.

CaMKIIα F89G = CaMKIIα F89G (Homo sapiens, UniProt Q9UQM7, F89G); assay: In vitro kinase reactions with CaMKII F89G ± NM-PP1 (pT286, pS831); format: biochemical; conditions: 10 µM NM-PP1
Method: Fig. 4 The CaMKII mutation F89G impairs ATP binding but binds the ATP-competitive inhibitor NM-PP1 that restores GluN2B binding and LTP-induced synaptic translocation. Data are presented as mean values ± s.e.m. a, Schematic of the pharmacogenetic method of ATP-competitive CaMKII inhibition; enlargement of the CaMKII ATP-binding pocket by the F89G mutation allows for selective binding of the ATP-competitive inhibitor NM-PP1. b, Immunoblots of in vitro kinase reactions at 30 °C including GFP–CaMKII WT, K42M and F89G with GST–GluA1-c tail. […] Correlation indices were measured before and after Ionomycin-induced colocalization of GFP–CaMKII (WT, K42M and F89G) with mCherry-2BC, represented as change in the correlation index (vehicle: n = 22, 17, 12 cells; NM-PP1: n = 20, 24, 13 cells; one-way ANOVA, Tukey’s multiple comparisons test). […] CaMKII synaptic enrichment was measured before and after cLTP (n = 13, 14, 14 cells; RM two-way ANOVA with Šídák’s multiple comparisons test). […] CaMKII synaptic enrichment was measured before and after cLTP (n = 7, 6, 7 cells; RM two-way ANOVA with Šídák’s multiple comparisons test). […]
CaMKII-mediated phosphorylation of GluA1 S831 or GluN2B S1303 was measured by in vitro kinase reaction with a purified GST–GluA1 C-terminal tail or GST-GluN2B C-terminal tail. […]

Sequence of SAPK2a(h) (Q16539 whole entry): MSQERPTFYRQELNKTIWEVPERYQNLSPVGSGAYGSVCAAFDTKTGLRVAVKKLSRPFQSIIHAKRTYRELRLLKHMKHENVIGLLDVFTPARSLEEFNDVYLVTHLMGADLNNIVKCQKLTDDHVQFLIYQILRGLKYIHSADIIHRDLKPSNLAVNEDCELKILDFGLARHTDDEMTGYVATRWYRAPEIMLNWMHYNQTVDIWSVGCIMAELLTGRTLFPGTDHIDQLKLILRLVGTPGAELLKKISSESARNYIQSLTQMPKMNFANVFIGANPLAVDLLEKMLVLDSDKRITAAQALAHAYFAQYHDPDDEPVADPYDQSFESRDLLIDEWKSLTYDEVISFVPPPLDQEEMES
Sequence of PKG1β(h) (Q13976 1-686 isoform Q13976-2): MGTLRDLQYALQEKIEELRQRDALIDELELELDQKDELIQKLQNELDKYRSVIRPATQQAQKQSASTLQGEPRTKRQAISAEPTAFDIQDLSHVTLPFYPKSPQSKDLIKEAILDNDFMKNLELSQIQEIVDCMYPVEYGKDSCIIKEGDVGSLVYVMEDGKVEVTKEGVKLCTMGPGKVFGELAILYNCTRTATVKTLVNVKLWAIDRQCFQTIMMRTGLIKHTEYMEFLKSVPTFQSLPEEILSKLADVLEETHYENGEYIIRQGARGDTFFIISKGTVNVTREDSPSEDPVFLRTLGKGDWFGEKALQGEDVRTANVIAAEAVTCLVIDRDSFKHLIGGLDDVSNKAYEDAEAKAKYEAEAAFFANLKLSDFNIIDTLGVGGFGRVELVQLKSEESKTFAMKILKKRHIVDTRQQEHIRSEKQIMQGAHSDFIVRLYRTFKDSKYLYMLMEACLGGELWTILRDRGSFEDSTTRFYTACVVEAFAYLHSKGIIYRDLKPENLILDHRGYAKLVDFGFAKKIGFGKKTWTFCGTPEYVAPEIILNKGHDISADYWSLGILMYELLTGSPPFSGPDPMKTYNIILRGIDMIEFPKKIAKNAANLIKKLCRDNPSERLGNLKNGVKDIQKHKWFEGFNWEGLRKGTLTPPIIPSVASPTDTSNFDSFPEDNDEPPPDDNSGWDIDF
Sequence of PDGFRβ(h) (P09619 33-1106): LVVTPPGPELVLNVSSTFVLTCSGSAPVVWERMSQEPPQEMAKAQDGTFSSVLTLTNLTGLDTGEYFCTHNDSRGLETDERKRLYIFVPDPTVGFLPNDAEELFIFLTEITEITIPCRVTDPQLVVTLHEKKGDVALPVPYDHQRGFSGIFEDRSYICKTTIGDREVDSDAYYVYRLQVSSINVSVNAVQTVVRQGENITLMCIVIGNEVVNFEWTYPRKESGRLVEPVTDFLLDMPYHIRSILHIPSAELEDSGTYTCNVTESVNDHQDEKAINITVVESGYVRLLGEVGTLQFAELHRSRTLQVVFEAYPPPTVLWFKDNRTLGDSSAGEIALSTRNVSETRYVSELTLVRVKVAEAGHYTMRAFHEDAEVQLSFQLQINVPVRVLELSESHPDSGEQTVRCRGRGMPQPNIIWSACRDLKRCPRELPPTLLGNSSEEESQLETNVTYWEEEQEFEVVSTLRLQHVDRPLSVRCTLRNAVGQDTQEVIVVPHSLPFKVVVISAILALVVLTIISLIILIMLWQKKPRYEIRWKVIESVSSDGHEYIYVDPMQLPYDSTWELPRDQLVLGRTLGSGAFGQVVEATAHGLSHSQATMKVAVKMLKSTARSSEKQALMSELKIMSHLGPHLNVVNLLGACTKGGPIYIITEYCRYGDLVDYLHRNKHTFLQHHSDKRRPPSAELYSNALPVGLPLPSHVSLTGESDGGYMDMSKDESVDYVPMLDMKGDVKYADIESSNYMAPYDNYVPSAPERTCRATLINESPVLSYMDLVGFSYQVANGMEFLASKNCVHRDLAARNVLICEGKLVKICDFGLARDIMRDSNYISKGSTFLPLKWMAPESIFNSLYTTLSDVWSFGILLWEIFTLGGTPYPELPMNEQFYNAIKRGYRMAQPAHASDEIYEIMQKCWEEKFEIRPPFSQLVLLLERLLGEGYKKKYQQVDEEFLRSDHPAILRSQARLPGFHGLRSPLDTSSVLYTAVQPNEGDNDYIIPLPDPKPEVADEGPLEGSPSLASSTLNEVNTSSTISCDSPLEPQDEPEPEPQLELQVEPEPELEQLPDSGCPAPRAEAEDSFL
Sequence of CaMKIV(h) (Q16566 whole entry): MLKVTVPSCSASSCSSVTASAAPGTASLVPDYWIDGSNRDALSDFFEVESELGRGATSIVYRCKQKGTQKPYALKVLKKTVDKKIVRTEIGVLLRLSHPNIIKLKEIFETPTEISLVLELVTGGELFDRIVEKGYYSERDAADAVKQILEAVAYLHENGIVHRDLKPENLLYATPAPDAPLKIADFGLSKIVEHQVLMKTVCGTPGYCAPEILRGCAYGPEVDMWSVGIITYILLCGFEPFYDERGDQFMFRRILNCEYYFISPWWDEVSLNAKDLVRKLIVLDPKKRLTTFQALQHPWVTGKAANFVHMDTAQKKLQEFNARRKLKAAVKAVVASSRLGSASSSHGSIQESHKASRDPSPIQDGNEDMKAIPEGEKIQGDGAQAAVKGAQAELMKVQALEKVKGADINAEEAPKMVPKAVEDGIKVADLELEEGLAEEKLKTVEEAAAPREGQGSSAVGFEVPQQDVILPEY
Sequence of CaMKIIδ(h) (Q13557 whole entry): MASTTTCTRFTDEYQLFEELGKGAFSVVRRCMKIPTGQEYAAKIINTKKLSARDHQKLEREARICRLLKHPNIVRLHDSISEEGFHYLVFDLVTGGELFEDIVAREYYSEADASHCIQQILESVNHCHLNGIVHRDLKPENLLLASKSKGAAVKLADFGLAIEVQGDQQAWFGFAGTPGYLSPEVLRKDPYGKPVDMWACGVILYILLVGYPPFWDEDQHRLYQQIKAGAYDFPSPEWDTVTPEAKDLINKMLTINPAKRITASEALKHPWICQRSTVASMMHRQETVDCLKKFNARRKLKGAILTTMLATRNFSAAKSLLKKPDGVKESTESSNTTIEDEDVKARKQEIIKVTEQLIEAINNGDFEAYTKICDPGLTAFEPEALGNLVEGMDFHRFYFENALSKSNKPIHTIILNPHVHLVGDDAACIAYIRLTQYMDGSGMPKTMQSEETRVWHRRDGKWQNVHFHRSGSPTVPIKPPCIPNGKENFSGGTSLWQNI
Sequence of PKCδ(h) (Q05655 whole entry): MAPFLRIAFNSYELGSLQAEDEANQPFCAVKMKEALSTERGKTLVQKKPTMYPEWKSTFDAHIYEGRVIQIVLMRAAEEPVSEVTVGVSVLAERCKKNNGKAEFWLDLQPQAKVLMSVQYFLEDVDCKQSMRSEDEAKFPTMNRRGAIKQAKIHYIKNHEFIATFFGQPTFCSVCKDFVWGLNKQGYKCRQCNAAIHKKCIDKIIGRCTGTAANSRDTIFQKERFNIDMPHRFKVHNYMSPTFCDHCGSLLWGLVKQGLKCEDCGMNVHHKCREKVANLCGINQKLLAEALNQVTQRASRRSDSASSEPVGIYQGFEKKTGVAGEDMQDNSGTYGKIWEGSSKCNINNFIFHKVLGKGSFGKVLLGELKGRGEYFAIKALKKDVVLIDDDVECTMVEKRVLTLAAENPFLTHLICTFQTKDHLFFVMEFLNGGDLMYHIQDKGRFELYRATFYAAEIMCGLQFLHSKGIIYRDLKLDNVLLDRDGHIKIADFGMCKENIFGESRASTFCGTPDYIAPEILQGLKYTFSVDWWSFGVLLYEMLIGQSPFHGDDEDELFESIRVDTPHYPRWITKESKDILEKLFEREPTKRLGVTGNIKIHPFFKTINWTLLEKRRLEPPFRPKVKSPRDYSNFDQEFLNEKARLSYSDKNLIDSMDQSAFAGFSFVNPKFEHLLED

Which results are given for `NCCNc1cccc(-c2ccnc3[nH]c4ccccc4c23)c1` [AS283]?
remaining activity at 1 µM (CaMKIIδ(h)): 2%; remaining activity at 1 µM (CaMKIV(h)): 90%; residual kinase activity in % of maximal activity (CDK2/cyclinE(h)): 41%; remaining activity at 1 µM (PDGFRβ(h)): 111%; remaining activity at 1 µM (PKCδ(h)): 39%; remaining activity at 1 µM (PKG1β(h)): 38%; residual kinase activity in % of maximal activity (SAPK2a(h)): 95%; bound CaMKIIα (immunoblot, relative) ([1]; Ca2+/CaM, 10 μM AS283, no nucleotide, GST–GluN2B-c S1303A): 4.303 and 5.73 and 6.682; enhancing effect on CaMKII binding compared with ATP ([1]; GluN2B S1303A mutant): indistinguishable; effect on CaMKII binding to GluN2B in colocalization assay [2]: did not inhibit

With `CC(C)(C)n1nc(Cc2cccc3ccccc23)c2c(N)ncnc21` [NM-PP1] as the compound, how does the “effect on residual activity of CaMKII F89G” value (CaMKIIα F89G) read?
The value was “further reduced”.
